Results taken from the supplement of paper PMC11821682.

Experiments:
[1] = tested on: Danio rerio embryo; assay: BMC10 any morphological effect or mortality at 120 hpf; higher = less toxic
Description: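 ZBEscreen: dechorionated Tropical 5D zebrafish embryos were exposed from 4 hpf in 96-well plates (1% DMSO, 28 °C). All compounds were first tested at 100 µM; hits were retested at 0.005-100 µM. Morphology and mortality were scored at 120 hpf and fitted as BMC10 (3-parameter log-logistic, extra risk). The embryonic photomotor response at 24 hpf and the larval photomotor response at 120 hpf are given as lowest effect levels (K-S test, p<0.01). NA = not significant up to 100 µM; NT = not tested.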

[2] = tested on: HL-60; assay: Cell Health Index (toxicity pseudo-probability over dose series) (index 0-1); higher = more cytotoxic / cell stress;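 note: HL-60 cells exposed 4 h at 37 °C to ten threefold dilutions spanning 5 nM to 100 µM, multiparametric flow cytometry features scored by machine-learning classification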

SMILES: COc1c(O)cc2c(c1O)[C@@H]1O[C@H](CO)[C@@H](O)[C@H](O)[C@H]1OC2=O [Bergenin]
- BMC10 any morphological effect or mortality [1]: > 100 µM
- Cell Health Index [2]: 0.214

SMILES: N#C[C@@]1(c2ccc3c(N)ncnn23)O[C@H](CO)[C@@H](O)[C@H]1O
- BMC10 any morphological effect or mortality [1]: > 100 µM
- Cell Health Index [2]: 0.185

SMILES: Cl.c1ccc([C@H]2CN3CCSC3=N2)cc1 [(-)-Levamisole]
- BMC10 any morphological effect or mortality [1]: > 100 µM
- Cell Health Index [2]: 0.173

SMILES: CCCn1c(=O)[nH]c2nc(-c3ccc(S(=O)(=O)N4CCN(c5ccc(Cl)cc5)CC4)cc3)[nH]c2c1=O [PSB-603]
- BMC10 any morphological effect or mortality [1]: > 100 µM
- Cell Health Index [2]: 0.489

SMILES: CCCNC(=O)[C@H]1O[C@@H]1C(=O)N[C@H](C(=O)N1CCC[C@H]1C(=O)O)[C@@H](C)CC [CA-074]
- BMC10 any morphological effect or mortality [1]: > 100 µM
- Cell Health Index [2]: 0.179

SMILES: Nc1ccc(C(=O)Nc2cccc(-c3nc(N4CCOCC4)c4oc5ncccc5c4n3)c2)cn1
- BMC10 any morphological effect or mortality [1]: > 100 µM
- Cell Health Index [2]: 0.615

SMILES: O=c1[nH]c(=O)n([C@H]2C[C@H](O)[C@@H](CO)O2)cc1CO [5-Hydroxymethyl-2'-deoxyuridine]
- BMC10 any morphological effect or mortality [1]: > 100 µM
- Cell Health Index [2]: 0.178

SMILES: CC(C)CN(C[C@@H](O)[C@H](Cc1ccccc1)NC(=O)O[C@H]1CCOC1)S(=O)(=O)c1ccc(N)cc1 [Amprenavir]
- BMC10 any morphological effect or mortality [1]: > 100 µM
- Cell Health Index [2]: 0.181

SMILES: CC(C)C[C@H](NC(=O)[C@@H](NC(=O)N[C@@H](Cc1ccccc1)C(=O)O)C1CCNC(=N)N1)C(=O)N[C@H](C=O)Cc1ccccc1 (stereo partly specified) [Chymostatin]
- BMC10 any morphological effect or mortality [1]: > 100 µM
- Cell Health Index [2]: 0.19

SMILES: COc1ccc(C[C@H]2COC(=O)[C@@H]2Cc2ccc(O[C@@H]3O[C@H](CO)[C@@H](O)[C@H](O)[C@H]3O)c(OC)c2)cc1OC [Arctiin]
- BMC10 any morphological effect or mortality [1]: > 100 µM
- Cell Health Index [2]: 0.192

SMILES: CNc1ncnc2c1ncn2[C@@H]1O[C@H](CO)[C@@H](O)[C@H]1O [N6-Methyladenosine]
- BMC10 any morphological effect or mortality [1]: > 100 µM
- Cell Health Index [2]: 0.307

SMILES: CC(C)(C)OC(=O)N[C@H]1CCCCC/C=C\[C@@H]2C[C@@]2(C(=O)NS(=O)(=O)C2CC2)NC(=O)[C@@H]2C[C@@H](OC(=O)N3Cc4cccc(F)c4C3)CN2C1=O [Danoprevir]
- BMC10 any morphological effect or mortality [1]: > 100 µM
- Cell Health Index [2]: 0.26

SMILES: Nc1ncnc2c1ncn2[C@@H]1O[C@H](CO)[C@@H](O)[C@@H]1O [Vidarabine]
- BMC10 any morphological effect or mortality [1]: > 100 µM
- Cell Health Index [2]: 0.234

SMILES: Cc1nnc(C(C)C)n1[C@@H]1C[C@H]2CC[C@@H](C1)N2CC[C@H](NC(=O)C1CCC(F)(F)CC1)c1ccccc1 [Maraviroc]
- BMC10 any morphological effect or mortality [1]: > 100 µM
- Cell Health Index [2]: 0.155

SMILES: COc1cccc(N2CCN(C3=Nc4c(F)cccc4[C@H](CC(=O)O)N3c3cc(C(F)(F)F)ccc3OC)CC2)c1 [Letermovir]
- BMC10 any morphological effect or mortality [1]: > 100 µM
- Cell Health Index [2]: 0.303

SMILES: Cl.NCC(=O)CCC(=O)O [5-Aminolevulinic acid]
- BMC10 any morphological effect or mortality [1]: > 100 µM
- Cell Health Index [2]: 0.194

SMILES: COC[C@H]1C[C@@H](c2ncc(-c3ccc4c(c3)COc3cc5c(ccc6nc([C@@H]7CC[C@H](C)N7C(=O)[C@@H](NC(=O)OC)C(C)C)[nH]c65)cc3-4)[nH]2)N(C(=O)[C@H](NC(=O)OC)c2ccccc2)C1 [Velpatasvir]
- BMC10 any morphological effect or mortality [1]: > 100 µM
- Cell Health Index [2]: 0.286

SMILES: c1ccc(CNCc2ccc(CN3CCCNCCNCCCNCC3)cc2)nc1 [AMD 3465 parent]
- BMC10 any morphological effect or mortality [1]: > 100 µM
- Cell Health Index [2]: 0.232

SMILES: CC(C)=CCC[C@](C)(O[C@@H]1O[C@H](CO[C@@H]2O[C@H](CO)[C@@H](O)[C@H](O)[C@H]2O)[C@@H](O)[C@H](O)[C@H]1O)[C@H]1CC[C@]2(C)[C@@H]1[C@H](O)C[C@@H]1[C@@]3(C)CC[C@H](O[C@@H]4O[C@H](CO)[C@@H](O)[C@H](O)[C@H]4O[C@@H]4O[C@H](CO)[C@@H](O)[C@H](O)[C@H]4O)C(C)(C)[C@@H]3CC[C@]12C [Ginsenoside Rb1]
- BMC10 any morphological effect or mortality [1]: > 100 µM
- Cell Health Index [2]: 0.145

SMILES: O=CC1OC(=O)c2cc(O)c(O)c(O)c2-c2c(cc(O)c(O)c2O)C(=O)OC1C1OC(=O)c2cc(O)c(O)c(O)c2-c2c(O)c(O)c3oc(=O)c4c(c(O)c(O)c5oc(=O)c2c3c54)-c2c(cc(O)c(O)c2O)C(=O)OCC1O (stereo unspecified) [Punicalagin]
- BMC10 any morphological effect or mortality [1]: > 100 µM
- Cell Health Index [2]: 0.837

SMILES: COc1c(-c2ccc3cc(NS(C)(=O)=O)ccc3c2)cc(-n2ccc(=O)[nH]c2=O)cc1C(C)(C)C [Dasabuvir]
- BMC10 any morphological effect or mortality [1]: > 100 µM
- Cell Health Index [2]: 0.608

SMILES: O=C(O)/C(S)=C/c1ccc(I)cc1
- BMC10 any morphological effect or mortality [1]: > 100 µM
- Cell Health Index [2]: 0.32

SMILES: C[C@@H]1O[C@@H](OC[C@H]2O[C@@H](Oc3c(-c4ccc(O)c(O)c4)oc4cc(O)cc(O)c4c3=O)[C@H](O)[C@@H](O)[C@@H]2O)[C@H](O)[C@H](O)[C@H]1O.O.O.O [Rutin]
- BMC10 any morphological effect or mortality [1]: > 100 µM
- Cell Health Index [2]: 0.252

SMILES: CCO.C[C@H]1c2cccc(O)c2C(=O)C2=C(O)[C@]3(O)C(=O)C(C(N)=O)=C(O)[C@@H](N(C)C)C3[C@@H](O)C21.C[C@H]1c2cccc(O)c2C(=O)C2=C(O)[C@]3(O)C(=O)C(C(N)=O)=C(O)[C@@H](N(C)C)C3[C@@H](O)C21.Cl.Cl.O (stereo partly specified) [Doxycycline]
- BMC10 any morphological effect or mortality [1]: > 100 µM
- Cell Health Index [2]: 0.591

SMILES: Cl.OC[C@H]1NC[C@H](O)[C@@H](O)[C@@H]1O [Duvoglustat]
- BMC10 any morphological effect or mortality [1]: > 100 µM
- Cell Health Index [2]: 0.147

SMILES: COC(=O)C1=CO[C@@H](O[C@@H]2O[C@H](CO)[C@@H](O)[C@H](O)[C@H]2O)[C@@H]2C(CO)=CC[C@H]12 [Geniposide]
- BMC10 any morphological effect or mortality [1]: > 100 µM
- Cell Health Index [2]: 0.251

SMILES: Cc1ccnc2c1NC(=O)c1cccnc1N2C1CC1 [Nevirapine]
- BMC10 any morphological effect or mortality [1]: > 100 µM
- Cell Health Index [2]: 0.185

SMILES: CC[C@H](NC(=O)[C@H](C)NC)C(=O)N1C[C@@H](O)C[C@H]1Cc1c(-c2[nH]c3cc(F)ccc3c2C[C@@H]2C[C@H](O)CN2C(=O)[C@H](CC)NC(=O)[C@H](C)NC)[nH]c2cc(F)ccc12 [Birinapant]
- BMC10 any morphological effect or mortality [1]: > 100 µM
- Cell Health Index [2]: 0.282

SMILES: CC(=O)N[C@H]1[C@H]([C@H](O)[C@H](O)CO)OC(C(=O)O)=C[C@@H]1NC(=N)N [Zanamivir]
- BMC10 any morphological effect or mortality [1]: > 100 µM
- Cell Health Index [2]: 0.22

SMILES: CC(C)(C)C(=O)OCOP(=O)(COCCn1cnc2c(N)ncnc21)OCOC(=O)C(C)(C)C [Adefovir dipivoxil]
- BMC10 any morphological effect or mortality [1]: > 100 µM
- Cell Health Index [2]: 0.258

SMILES: OC[C@H]1O[C@@H](Oc2cc(O)cc(C=Cc3ccc(O)cc3)c2)[C@H](O)[C@@H](O)[C@@H]1O [Polydatin]
- BMC10 any morphological effect or mortality [1]: > 100 µM
- Cell Health Index [2]: 0.106

SMILES: Cc1ccc(S(=O)(=O)OCC(=O)Nc2ccc(C(=O)O)c(O)c2)cc1 [S3I-201]
- BMC10 any morphological effect or mortality [1]: > 100 µM
- Cell Health Index [2]: 0.259

SMILES: O=C([O-])P(=O)([O-])[O-].[Na+].[Na+].[Na+] [Foscarnet]
- BMC10 any morphological effect or mortality [1]: > 100 µM
- Cell Health Index [2]: 0.13
